# In patent US12428422B2, “Purine derivatives as SIK-3 inhibitors” (RHIZEN PHARMACEUTICALS AG, priority 2020, dated 2025):
# Assays:
# [1] = target: 6 isoform of PI3K (Homo sapiens, UniProt O00329); assay: Activity against PI3K delta isoform (printed "6"); details: independently synthesized compound
# [2] = tested on: TNFα; assay: TNFα levels in LPS-stimulated human macrophages by ELISA; assay type: cell-based; details: LPS (1 μg/mL) stimulated human macrophages, supernatant after 4 hours
# Protocol: Assay 3: TNFα Levels in LPS-Stimulated (1 μg/ml) Human Macrophages Following Treatment with Compound M1 was Estimated by ELISA.
# Isolation of Human PBMCs (Peripheral Blood Mononuclear Cells)
# The second layer from the top, the buffy coat, was collected carefully with a serological pipette and placed in a new 50 ml centrifuge tube. The volume was made up to 50 mL with 1×PBS and centrifuged at 250×g for 10 min at room temperature. • The supernatant was discarded and red blood cells (RBCs) were resuspended with 5 mL ACK lysis buffer to facilitate RBC lysis and left at room temperature for 5 min. The tube was filled up with 1×PBS and centrifuged at 250×g for 10 min at room temperature. • The supernatant was discarded and the pellet was re-suspended in 5 mL of RPMI complete media. • Cells were counted on a haemocytometer. […] Assay Protocol • Cells were scraped and centrifuged at 250×g for 8 mins and cell concentration was determined. • 0.2×10^6 human macrophages were plated/well in a 96-well plate in RPMI CM with 50 ng/mL of Human M-CSF-1 and incubated overnight at 37° C. and 5% CO2. • Human macrophages were treated with compound M1 for 1 hour followed by addition of LPS (1 μg/mL).
# Fold change was calculated, and graphs were plotted using GraphPad Prism. TNFα cytokine levels measured in LPS stimulated human macrophages supernatants were reduced by 75% following treatment with compound M1.
# [3] = tested on: MDA-MB-231 cell lines; assay: MTT cell growth inhibition, combination with taxol, MDA-MB-231; assay type: cell-based; details: combined with taxol, 72 hrs
# Protocol: (§1) Assay 6: Combination of Compound M1 with Standard Agents in Different Cell Lines
# (§2) Day 0 • The cells were pelleted and counted. • Cells were plated at desired density (100 μl/well) in complete media in a 96-well plate in triplicates. A column for Day “0” reading was also seeded. (18-20 hrs after initial plating and before addition of the inhibitors) • Plates were incubated at 37° C. and 5% CO2. Day 1 • 10 μl of MTT (5 mg/ml) were added to the column designated for Day “0”. It was mixed well and incubated at 37° C. and 5% CO2 for 3.5 h. Cells were pelleted down at 4000 rpm for 10 minutes. • Media was aspirated out and 150 μl of DMSO were added to the cells and mixed by pipetting to dissolve the crystals • The plate was read at A560 nm and A640 nm. Day 2 • A series of dilutions of the inhibitors were initially made in 100% DMSO and further diluted in growth medium. • Cells were treated with either single agent of DMSO, compound M1, taxol, and a combination of compound M1 and taxol (MDA-MB-231, MCF-7, ZR.75.1 and SK-OV-3). […] Crystals were dissolved by repeated pipetting. • The plate was read at A560 nm and A640 nm. […]
# (§3) Reference absorbance values were subtracted from test absorbance values. Day 0 values were subtracted from final day absorbance values for determining cell growth. % Cell growth inhibitions were calculated.
# [4] = tested on: MCF-7 cell lines; assay: MTT cell growth inhibition, combination with taxol, MCF-7; assay type: cell-based; details: combined with taxol, 72 hrs
# Protocol: as §1, §2, §3
# [5] = tested on: SK-OV-3 cell lines; assay: MTT cell growth inhibition, combination with talzoparib, SK-OV-3; assay type: cell-based; details: combined with talzoparib, 72 hrs
# Protocol: Assay 5: Combination of Compound M1 with Standard Agents in Different Cell Lines
# Day 0 • The cells were pelleted and counted. • Cells were plated at desired density (100 μl/well) in complete media in a 96-well plate in triplicates. A column for Day “0” reading was also seeded. (18-20 hrs after initial plating and before addition of the inhibitors) • Plates were incubated at 37° C. and 5% CO2. Day 1 • 10 μl of MTT (5 mg/ml) were added to the column designated for Day “0”. It was mixed well and incubated at 37° C. and 5% CO2 for 3.5 h. Cells were pelleted down at 4000 rpm for 10 minutes. • Media was aspirated out and 150 μl of DMSO were added to the cells and mixed by pipetting to dissolve the crystals • The plate was read at A560 nm and A640 nm. Day 2 • A series of dilutions of the inhibitors were initially made in 100% DMSO and further diluted in growth medium. • Cells were treated with either single agent of DMSO, compound M1, talzoparib, and combination of compound M1 and talzoparib (OVCAr-3 and SK-OV-3). […]
# The plate was read at A560 nm and A640 nm.
# as §3
# Chain of 6 isoform of PI3K (O00329 whole entry, canonical isoform): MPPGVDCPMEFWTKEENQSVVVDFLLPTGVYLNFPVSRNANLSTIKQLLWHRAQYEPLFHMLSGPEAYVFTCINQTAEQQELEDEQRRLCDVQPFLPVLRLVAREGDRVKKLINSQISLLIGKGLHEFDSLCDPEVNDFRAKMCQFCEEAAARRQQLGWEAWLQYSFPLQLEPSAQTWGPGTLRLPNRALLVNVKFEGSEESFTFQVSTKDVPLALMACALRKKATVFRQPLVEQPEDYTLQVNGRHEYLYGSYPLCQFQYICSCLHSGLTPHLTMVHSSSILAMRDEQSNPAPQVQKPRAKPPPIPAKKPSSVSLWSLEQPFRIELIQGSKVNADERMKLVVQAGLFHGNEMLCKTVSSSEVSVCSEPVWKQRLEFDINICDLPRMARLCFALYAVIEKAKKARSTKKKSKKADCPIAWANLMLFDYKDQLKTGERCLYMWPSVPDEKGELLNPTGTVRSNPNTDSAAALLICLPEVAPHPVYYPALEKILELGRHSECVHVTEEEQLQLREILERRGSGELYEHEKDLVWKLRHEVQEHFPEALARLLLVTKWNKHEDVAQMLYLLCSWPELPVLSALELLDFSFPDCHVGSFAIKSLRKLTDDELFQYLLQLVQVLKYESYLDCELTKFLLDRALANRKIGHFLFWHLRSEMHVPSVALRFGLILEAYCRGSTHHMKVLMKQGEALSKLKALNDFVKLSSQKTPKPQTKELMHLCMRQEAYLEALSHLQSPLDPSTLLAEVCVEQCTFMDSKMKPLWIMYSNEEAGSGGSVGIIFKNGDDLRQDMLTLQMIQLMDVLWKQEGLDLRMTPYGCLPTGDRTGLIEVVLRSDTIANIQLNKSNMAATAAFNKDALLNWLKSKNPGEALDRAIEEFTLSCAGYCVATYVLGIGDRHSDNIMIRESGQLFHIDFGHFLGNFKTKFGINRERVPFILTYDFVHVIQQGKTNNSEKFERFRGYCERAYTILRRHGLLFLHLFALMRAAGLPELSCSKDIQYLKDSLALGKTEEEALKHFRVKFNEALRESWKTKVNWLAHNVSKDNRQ
# Chain of 6 isoform of PI3K (P27986 whole entry partner, canonical isoform): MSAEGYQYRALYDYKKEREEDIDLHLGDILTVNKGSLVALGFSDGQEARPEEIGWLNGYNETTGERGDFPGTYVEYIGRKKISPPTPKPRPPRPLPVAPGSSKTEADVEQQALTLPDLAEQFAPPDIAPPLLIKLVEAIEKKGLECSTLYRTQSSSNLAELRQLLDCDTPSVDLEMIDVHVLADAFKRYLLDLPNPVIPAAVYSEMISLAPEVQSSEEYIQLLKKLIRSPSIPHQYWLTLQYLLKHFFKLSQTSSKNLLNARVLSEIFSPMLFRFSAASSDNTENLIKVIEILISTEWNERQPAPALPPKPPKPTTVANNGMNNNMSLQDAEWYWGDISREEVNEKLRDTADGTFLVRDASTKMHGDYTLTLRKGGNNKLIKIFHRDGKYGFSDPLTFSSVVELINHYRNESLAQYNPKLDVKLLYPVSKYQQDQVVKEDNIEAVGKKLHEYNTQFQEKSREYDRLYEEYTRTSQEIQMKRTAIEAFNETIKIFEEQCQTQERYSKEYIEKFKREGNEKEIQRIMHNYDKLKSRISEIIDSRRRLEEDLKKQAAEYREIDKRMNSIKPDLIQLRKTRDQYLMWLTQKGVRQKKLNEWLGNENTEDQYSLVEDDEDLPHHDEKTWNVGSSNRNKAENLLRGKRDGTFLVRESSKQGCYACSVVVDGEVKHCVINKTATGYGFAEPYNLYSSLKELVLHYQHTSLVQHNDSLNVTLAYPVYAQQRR
smiles,measurement,setting,value
"CC[C@H](Nc1ncnc2[nH]c(O)nc12)c1oc2ccccc2c(=O)c1-c1cccc(F)c1 [Compound M1, (S)-3-(3-fluorophenyl)-2-(1-((8-hydroxy-9H-purin-6-yl)amino)propyl)-4H-chromen-4-one]",activity against the 6 isoform of PI3K,[1],inactive
same,reduction of TNFα cytokine levels in supernatants,[2],75%
same,cell growth inhibition in combination,[3],synergistic results
same,cell growth inhibition in combination,[4],synergistic results
same,cell growth inhibition in combination,[5],synergistic results
